Measured values as given in ChEMBL document CHEMBL5257042, “Highly Oxidized Ecdysteroids from a Commercial Cyanotis arachnoidea Root Extract as Potent Blood-Brain Barrier Protective Agents” (J Nat Prod, 2023).
The source made the active and inactive calls. The rule behind the calls is not given here.

Tests used:
[1] = Cytotoxicity against human CMEC/D3 cells assessed as increase in cell impedance at 1 uM incubated for 4 hrs by RTCA assay; assay type: toxicity, cell-based; settings: hcmec/d3, 4 h
[2] = Cytotoxicity against human CMEC/D3 cells assessed as decrease in cell impedance at 10 uM incubated for 4 hrs by RTCA assay; assay type: toxicity, cell-based; settings: hcmec/d3, 4 h
[3] = system: hCMEC/D3; assay: Cytoprotective activity against tBHP-induced oxidative damage in human CMEC/D3 cells at 1 uM incubated for 4 hrs by RTCA assay; assay type: functional, cell-based
[4] = system: hCMEC/D3; assay: Cytoprotective activity against TNFalpha-induced cellular damage in human CMEC/D3 cells assessed as increase in cell impedance at 1 uM incubated for 4 hrs by RTCA assay; assay type: functional, cell-based
[5] = system: hCMEC/D3; assay: Cytoprotective activity against IL-1beta-induced cellular damage in human CMEC/D3 cells assessed as increase in cell impedance at 1 uM incubated for 4 hrs by RTCA assay; assay type: functional, cell-based

SMILES	Activity [1]	Activity [2]	Activity [3]	Activity [4]	Activity [5]
CC(C)(O)CC[C@H]1O[C@H]2C(=O)[C@@H]3C4=C(CC[C@]3(C)[C@H]2[C@@]1(C)O)[C@@]1(C)C[C@H](O)[C@H](O)CC1=C(O)C4=O	Non-Toxic	Toxic	Active	Active	Active
CC(C)(O)CC[C@@H](O)[C@](C)(O)[C@H]1C[C@H](O)C2=C3C(=O)C(O)=C4C[C@@H](O)[C@@H](O)C[C@]4(C)[C@@]3(O)CC[C@@]21C	Non-Toxic	Non-Toxic	Active	Active	Active
CC(C)(O)CCC(=O)[C@](C)(O)[C@H]1CC(=O)C2=C3C(=O)C(O)=C4C[C@@H](O)[C@@H](O)C[C@]4(C)C3=CC[C@@]21C	Non-Toxic	Non-Toxic	Active	Active	Active
